Measured values taken from patent US20210137886A1, “INHIBITORS OF METALLO-BETA-LACTAMASES” (Oxford University Innovation Limited, priority 2017, published 2021).

Tests used:
[1] = tested on: Klebsiella pneumoniae IMP-4; test: Meropenem MIC, CLSI broth or agar microdilution, strain entry 1; assay type: cell-based
E. coli IMP-4 = test: Meropenem MIC, CLSI broth or agar microdilution, strain entry 2; assay type: cell-based
E. coli VIM-1 = test: Meropenem MIC, CLSI broth or agar microdilution, strain entry 3; assay type: cell-based; settings: strain entry 3, E. coli VIM-1
Excerpt: (§1) In each case DMSO was used to dissolve inhibitors.

[2] = tested on: Klebsiella pneumoniae VIM-1; test: Meropenem MIC, CLSI broth or agar microdilution, strain entry 4; assay type: cell-based
[3] = tested on: Pseudomonas aeruginosa VIM-2; test: Meropenem MIC, CLSI broth or agar microdilution, strain entry 5; assay type: cell-based; settings: strain entry 5, Pseudomonas aeruginosa VIM-2
Excerpt: as §1

[4] = tested on: Klebsiella pneumoniae NDM-1; test: Meropenem MIC, CLSI broth or agar microdilution, strain entry 6; assay type: cell-based; settings: strain entry 6, Klebsiella pneumoniae NDM-1
Excerpt: as §1

[5] = tested on: Klebsiella pneumoniae NDM-1 + DHA + CTX − M-15; test: Meropenem MIC, CLSI broth or agar microdilution, strain entry 7; assay type: cell-based
[6] = target: VIM-2 (Veronese metallo-β-lactamase-2) (Escherichia coli, UniProt Q5U7L7); test: Metallo-β-lactamase enzyme inhibition, standard assay protocol
IMP-1 (Imipenemase-1) = IMP-1 (Imipenemase-1) (Serratia marcescens, UniProt P52699); test: as above
IMP-1 (Imipenemase-1), sequence (P52699 19-246, looked up, species assumed): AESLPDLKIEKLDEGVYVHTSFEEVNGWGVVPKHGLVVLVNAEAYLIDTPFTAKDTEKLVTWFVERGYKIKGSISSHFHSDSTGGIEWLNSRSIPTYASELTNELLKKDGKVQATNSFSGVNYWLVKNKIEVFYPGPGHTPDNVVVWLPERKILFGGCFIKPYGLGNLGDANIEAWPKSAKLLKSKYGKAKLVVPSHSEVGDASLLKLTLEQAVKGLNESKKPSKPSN

[7] = target: NDM-1 (New Delhi metallo-β-lactamase-1) (Klebsiella pneumoniae, UniProt C7C422); test: as above
NDM-1 (New Delhi metallo-β-lactamase-1), sequence (C7C422 29-270, looked up, species assumed): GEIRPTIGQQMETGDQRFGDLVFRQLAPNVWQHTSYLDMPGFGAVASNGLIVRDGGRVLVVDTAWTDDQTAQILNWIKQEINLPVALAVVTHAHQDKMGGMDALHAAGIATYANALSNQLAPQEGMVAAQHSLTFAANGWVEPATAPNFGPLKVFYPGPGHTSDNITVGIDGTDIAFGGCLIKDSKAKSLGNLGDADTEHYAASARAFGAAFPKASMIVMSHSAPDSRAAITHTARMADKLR

[8] = target: VIM-1 (Veronese metallo-β-lactamase-1) (Pseudomonas aeruginosa, UniProt A0A0F7KYQ8); test: as above

Structure (SMILES) | Change in MIC value of meropenem ([1]; 2 mg/L inhibitor) [log2 difference] | Change in MIC value of meropenem ([1]; 4 mg/L inhibitor) [log2 difference] | Change in MIC value of meropenem ([1]; 8 mg/L inhibitor) [log2 difference] | Change in MIC value of meropenem (E. coli IMP-4; 2 mg/L inhibitor) [log2 difference] | Change in MIC value of meropenem (E. coli IMP-4; 4 mg/L inhibitor) [log2 difference] | Change in MIC value of meropenem (E. coli IMP-4; 8 mg/L inhibitor) [log2 difference] | Change in MIC value of meropenem (E. coli VIM-1; 2 mg/L inhibitor) [log2 difference] | Change in MIC value of meropenem (E. coli VIM-1; 4 mg/L inhibitor) [log2 difference] | Change in MIC value of meropenem (E. coli VIM-1; 8 mg/L inhibitor) [log2 difference] | Change in MIC value of meropenem ([2]; 2 mg/L inhibitor) [log2 difference] | Change in MIC value of meropenem ([2]; 4 mg/L inhibitor) [log2 difference] | Change in MIC value of meropenem ([2]; 8 mg/L inhibitor) [log2 difference] | Change in MIC value of meropenem ([3]; 2 mg/L inhibitor) [log2 difference] | Change in MIC value of meropenem ([3]; 4 mg/L inhibitor) [log2 difference] | Change in MIC value of meropenem ([3]; 8 mg/L inhibitor) [log2 difference] | Change in MIC value of meropenem ([4]; 2 mg/L inhibitor) [log2 difference] | Change in MIC value of meropenem ([4]; 4 mg/L inhibitor) [log2 difference] | Change in MIC value of meropenem ([4]; 8 mg/L inhibitor) [log2 difference] | Change in MIC value of meropenem ([5]; 2 mg/L inhibitor) [log2 difference] | Change in MIC value of meropenem ([5]; 4 mg/L inhibitor) [log2 difference] | further results
CC(C)c1csc2c(-c3ccc(F)cc3)c(C(=O)O)[nH]c12 [Example 12, 3-isopropyl-6-(4-fluorophenyl)-4H-thieno-[3,2-b]pyrrole-5-carboxylic acid] | −2 | −2 | −2 | −2 | −2 | −3 | −1 | −1 | −1 | −2 | −2 | −2 | 0 | 0 | 0 | −1 | −1 | −2 | −1 | −2 | Change in MIC value of meropenem ([5]; 8 mg/L inhibitor): −3 log2 difference; IC50 [6]: 39.8 nM; IC50 (IMP-1 (Imipenemase-1)): 50.1 nM; IC50 [7]: 50.1 nM; IC50 [8]: 631 nM
O=C(O)c1[nH]c2c(C3CC3)csc2c1-c1ccc(F)cc1 [Example 13, 3-cyclopropyl-6-(4-fluorophenyl)-4H-thieno-[3,2-b]pyrrole-5-carboxylic acid] | −2 | −2 | −2 | −2 | −2 | −2 | −1 | −1 | −1 | −2 | −2 | −2 | 0 | 0 | 0 | −1 | −1 | −2 | −2 | −2 | Change in MIC value of meropenem ([5]; 8 mg/L inhibitor): −2 log2 difference; IC50 [6]: 79.4 nM; IC50 (IMP-1 (Imipenemase-1)): 398 nM; IC50 [7]: 50.1 nM; IC50 [8]: 1580 nM
NS(=O)(=O)c1ccc(-c2c(C(=O)O)[nH]c3c(Br)csc23)cc1 [Example 14, 3-bromo-6-(4-sulfamoylphenyl)-4H-thieno-[3,2-b]pyrrole-5-carboxylic acid] | −1 | −1 | −1 | −1 | −1 | −1 | −1 | −1 | −1 | −1 | −1 | −1 | 0 | 0 | 0 | −1 | −1 | −2 | −2 | −2 | Change in MIC value of meropenem ([5]; 8 mg/L inhibitor): −3 log2 difference; IC50 [6]: 158 nM; IC50 (IMP-1 (Imipenemase-1)): 1260 nM; IC50 [7]: 63.1 nM; IC50 [8]: 3160 nM
